Reference: the NIST ThermoML archive (doi:10.1021/acs.jced.8b00028)
± gives the expanded uncertainty stated by the source.

Conditions: 101 kPa, Liquid

CC(O)CO (configuration not stated) [1,2-propanediol]
mass density [kg/m3]
Conditions	Buoyancy - hydrostatic balance	Pycnometric method
273.15 K	1051.77 ± 0.21	1052.17 ± 0.35
283.15 K	1044.65 ± 0.21	1044.74 ± 0.33
293.15 K	1037.13 ± 0.21	1037.22 ± 0.31
303.15 K	1029.87 ± 0.21	1029.64 ± 0.32
313.15 K	1022.37 ± 0.21	1021.98 ± 0.34
323.15 K	1014.64 ± 0.2	1014.25 ± 0.35
333.15 K	1006.75 ± 0.2	1006.45 ± 0.37
343.15 K	998.71 ± 0.2	998.57 ± 0.38
353.15 K	990.77 ± 0.2	990.62 ± 0.4
363.15 K	982.38 ± 0.2	982.6 ± 0.41
373.15 K	973.81 ± 0.2	–
383.15 K	965.04 ± 0.19	–
393.15 K	956.09 ± 0.19	–
403.15 K	946.95 ± 0.19	–
413.15 K	937.62 ± 0.19	–
423.15 K	928.1 ± 0.19	–
433.15 K	918.39 ± 0.18	–
443.15 K	908.5 ± 0.18	–
453.15 K	898.41 ± 0.18	–
463.15 K	888.14 ± 0.18	–

OCCO [1,2-ethanediol]
mass density [kg/m3]
Conditions	Buoyancy - hydrostatic balance	Pycnometric method
273.15 K	1127.2 ± 0.23	1127.05 ± 0.38
283.15 K	1120.58 ± 0.23	1120.5 ± 0.36
293.15 K	1113.84 ± 0.22	1113.84 ± 0.35
303.15 K	1106.98 ± 0.22	1107.07 ± 0.36
313.15 K	1099.99 ± 0.22	1100.19 ± 0.37
323.15 K	1092.88 ± 0.22	1093.2 ± 0.39
333.15 K	1085.65 ± 0.22	1086.11 ± 0.4
343.15 K	1078.29 ± 0.22	1078.91 ± 0.42
353.15 K	1070.8 ± 0.22	1071.6 ± 0.44
363.15 K	1063.2 ± 0.21	1064.18 ± 0.45
373.15 K	1055.47 ± 0.21	–
383.15 K	1047.62 ± 0.21	–
393.15 K	1039.64 ± 0.21	–
403.15 K	1031.53 ± 0.21	–
413.15 K	1023.31 ± 0.21	–
423.15 K	1014.96 ± 0.2	–
433.15 K	1006.48 ± 0.2	–
443.15 K	997.88 ± 0.2	–
453.15 K	989.16 ± 0.2	–
463.15 K	980.31 ± 0.2	–
473.15 K	971.34 ± 0.2	–

CCCCCCC [heptane]
mass density [kg/m3]
Conditions	293.15 K	301.62 K	310.71 K	319.85 K	329.04 K	338.26 K	347.53 K	356.84 K
Buoyancy - hydrostatic balance	683.65 ± 0.14	675.96 ± 0.14	668.05 ± 0.13	660.16 ± 0.13	652.58 ± 0.13	644.01 ± 0.13	635.57 ± 0.13	627.05 ± 0.13
Pycnometric method	683.67 ± 1	675.75 ± 1	667.37 ± 1	659.85 ± 1	651.92 ± 1	644.32 ± 1	635.91 ± 1	627.85 ± 1
